Reference: publication PMC5075098, “Preclinical Evaluation of the Stability, Safety, and Efficacy of CD101, a Novel Echinocandin” (Antimicrobial Agents and Chemotherapy, 2016)
In brackets after ≈: the same amount, converted by molar mass. Where two headings read alike, the source gives them in different places. Starred links: 1 amine or outer side, 2 acyl side, 3 side chain; linkers in the order of their positions; H or OH if unused. Positions of bridges follow the written chain, without caps; N, C: chain ends. Non-standard residues stand in square brackets, D forms with d. Residues, ends and D or L forms follow the SMILES beside them. *: point of attachment. pTerphenylCO(4''-OnC5H11) = CCCCCOc1ccc(-c2ccc(-c3ccc(C(=O)*)cc3)cc2)cc1; Orn(4R-OH,5R-OH) = O=C([C@H](C[C@@H](O)[C@@H](O)N[*:3])N[*:1])[*:2]; hTyr(3S-OH,4S-OH) = N[C@H](C(=O)O)[C@H](O)[C@@H](O)c1ccc(O)cc1; Pro(3S-OH,4S-Me) = C[C@H]1CN[C@H](C(=O)O)[C@H]1O; Hyp = O=C(O)[C@@H]1C[C@@H](O)CN1

What was measured:
[1] = test system: C. albicans R303; assay: microbe, parasite or virus in culture; settings: Candida albicans, R303, 24 h
Experimental: (§1) Enumeration of MIC and MEC assay inoculum viable counts was performed by plating aliquots of the starting assay inoculum on Sabouraud dextrose agar.

[2] = test system: C. albicans R303; assay: Neutropenic mouse model of C. albicans infection, kidney colony counts
Experimental: Immunosuppression was induced by two intraperitoneal (i.p.) injections of cyclophosphamide at 150 mg/kg 4 days before and 100 mg/kg 1 day before inoculation. […] The animals in the fluconazole group were sacrificed 48 h after infection.

[3] = test system: A. fumigatus (ATCC 13073); assay: MEC/MIC, CLSI broth microdilution; settings: 24 h at 35°C, rounded/compact hyphal morphology
Experimental: as §1

[4] = 2-week repeat-dose toxicity and hepatotoxicity screening; type: in vivo, Sprague-Dawley rats
Experimental: Dosing solutions were prepared in a vehicle comprising 5% mannitol containing 2.5% polysorbate 80 (Tween 80) in 0.3% acetic acid.
Animals were randomly assigned to dose groups and stratified by weight to achieve similar group mean body weights (males, 255 to 318 g; females, 192 to 215 g). Blood, urine, and liver samples (excised and preserved in 10% neutral buffered formalin) were obtained on day 15. Plasma liver enzyme levels were assessed. Liver tissues were processed to paraffin blocks and prepared for slides. Slides were stained with hematoxylin and eosin. Hematology data were collected using the Advia 120 hematology analyzer. Coagulation data were collected using the Diagnostica STA compact coagulation analyzer. Clinical chemistry data were collected using the AU400 chemistry analyzer. Qualitative and quantitative urinalysis was recorded using iRICELL 1500 UA analyzer. Clinical effects were assessed for determination of the maximum tolerated dose (MTD).
Statistical evaluations were performed on in-life and clinical pathology numerical data to determine statistical significance following a decision tree. First, the homogeneity of the data was determined by Bartlett's test. If the data were homogeneous, a one-way analysis of variance was performed to assess statistical significance. If statistically significant differences between the means were found, Dunnett's test was used to determine the degree of significance from the control means (P < 0.05, P < 0.01, and P < 0.001). If the data were nonhomogeneous, the Kruskal-Wallis nonparametric analysis was performed to assess statistical significance. If statistically significant differences between the means were found (P < 0.05, P < 0.01, and P < 0.001), the Mann-Whitney U test was used to determine the degree of significance from the control means (P < 0.05, P < 0.01, and P < 0.001).

[5] = test system: A. fumigatus (ATCC 13073); assay: Neutropenic mouse model of A. fumigatus infection, survival; settings: BID for 5 days; CD101 all dose groups and anidulafungin 1 and 5 mg/kg i.v. (P < 0.05); amphotericin B 0.3 mg/kg i.p.
Experimental: Animals were immunosuppressed by three i.p. injections of cyclophosphamide (the first injection at 6 mg/mouse 3 days before inoculation and the second and third injections at 2 mg/mouse on 1 and 4 days after inoculation). […] Dose administration started 1 and 7 h after infection. […] An increase of 50% or more in the survival rate of the active groups compared to the vehicle group indicated significant antifungal efficacy.

[6] = Reactive metabolite screening (glutathione trapping); type: in vitro ADME; settings: PBS pH 7.4, excess GSH, 37°C, LC with high-resolution MS
Experimental: Samples were diluted to 10 μg/ml into 50:50 acetonitrile-water with 0.1 formic acid. Samples were analyzed by LC (Agilent 1100) with high-resolution MS (Waters quadrupole time of flight [Q-TOF] Premier mass spectrometer with electrospray interface) with concurrent low- and high-energy scans to obtain full-scan parent and product fragment ions. The analytical column was a Phenomenex Kinetex (2.6-μm C18, 100 by 3.0 mm). Waters MassLynx 4.1 software was used for data analysis.

[7] = test system: C. albicans R303; settings: CLSI broth microdilution, read after 24 h at 35°C, prominent growth inhibition (∼50%)
Experimental: as §1

[8] = Plasma protein binding, ultracentrifugation; type: in vitro ADME; settings: human, ∼500,000 × g 2.5 h at 37°C, LC-MS/MS, SEM, read-out: % of protein bound (SEM) (converted)
Experimental: Ultracentrifugation ([15]) was used to compare human plasma protein binding of CD101 and anidulafungin. […] Following ultracentrifugation, the supernatant was transferred to a microtiter plate containing 50 μl plasma for matrix-matching purposes and quenched with 400 μl of cold acetonitrile (ACN) with 0.1% formic acid containing diclofenac as an internal standard. Quenched samples were centrifuged for 5 min at 10°C (e.g., 3,100 rpm [2,000 × g]) to sediment the precipitated proteins, and 50 μl supernatant was transferred to a microtiter plate containing 100 μl of water prior to analysis by LC-MS/MS. The percentage bound was the difference between 100% and the percentage free (the ratio of the concentration in supernatant to the total concentration).

[9] = after 44 h; cited from earlier work
Description: CD101, a novel echinocandin being developed as a high-exposure, once-weekly intravenous (i.v.) formulation for the treatment and prevention of systemic fungal infections, was designed to be chemically and metabolically stable to avoid hepatotoxicity while retaining the antifungal activity of an echinocandin.

[10] = anidulafungin 40 mg/kg/day i.v. 14 days, rats, relative to controls, P ≤ 0.001
[11] = anidulafungin 40 mg/kg/day i.v. 14 days, rats, P ≤ 0.001
[12] = anidulafungin 40 mg/kg/day i.v. 14 days, rats, P ≤ 0.01

OC(Cn1cncn1)(Cn1cncn1)c1ccc(F)cc1F [fluconazole, reference compound]
MIC [1]: 2 µg/mL (≈ 6.53 µM) | reduction in CFU per gram of paired kidneys relative to vehicle ([2]; 20 mg/kg oral, 2 h after infection, 48 h): 87% | log reduction in CFU per gram relative to vehicle ([2]; 20 mg/kg oral, 48 h): 1.1 log

CCCCCOc1ccc(-c2ccc(-c3ccc(C(=O)N[C@H]4C[C@@H](O)[C@@H](O)NC(=O)[C@@H]5[C@@H](O)[C@@H](C)CN5C(=O)[C@H]([C@@H](C)O)NC(=O)[C@H]([C@H](O)[C@@H](O)c5ccc(O)cc5)NC(=O)[C@@H]5C[C@@H](O)CN5C(=O)[C@H]([C@@H](C)O)NC4=O)cc3)cc2)cc1 [anidulafungin] ({pTerphenylCO(4''-OnC5H11)}-[Orn(4R-OH,5R-OH)]T[Hyp][hTyr(3S-OH,4S-OH)]T[Pro(3S-OH,4S-Me)]; lactam 1-C)
MEC [3]: 0.004 µg/mL | repeat-dose systemic or target organ toxicity ([4]; 14-day i.v. infusion, rats, CD101 20 mg/kg/day, anidulafungin 40 mg/kg/day (comparable exposure)): severe hemolytic anemia and liver toxicity | spleen finding upon necropsy ([4]; anidulafungin 40 mg/kg/day i.v. 14 days, rats): dark and enlarged spleens | increase in mean alkaline phosphatase (ALP) [4, 10]: up to 47% | increase in mean aspartate aminotransferase (AST) [4, 10]: up to 68% | increase in total bilirubin [4, 10]: up to 2 fold | increase in mean alanine transaminase (ALT) ([4]; anidulafungin 40 mg/kg/day i.v. 14 days, rats, relative to controls, P ≤ 0.05): up to 27% | decrease in the albumin/globulin ratio [4, 11]: up to 15% | increases in platelets [4, 11]: up to 44% | increases in reticulocyte (polychromasia), neutrophil, and eosinophil counts [4, 11]: up to 4 fold | decreases in activated partial thromboplastin time [4, 12]: up to 23% | decreases in red blood cells (RBC), hemoglobin, and hematocrit [4, 12]: up to 19% | increases in globulin [4, 12]: up to 19% | increases in serum cholesterol [4, 12]: up to 52% | reduced body weights and food consumption, decrease relative to controls ([4]; anidulafungin 40 mg/kg/day i.v. infusion 14 days, rats, P ≤ 0.05): up to 9% | microscopic changes in the liver ([4]; day 15, H&E, CD101 2, 6, or 20 mg/kg/day, anidulafungin 40 mg/kg/day (some of the females)): minimal to moderate single-cell necrosis affecting the hepatocytes | 10-day survival rate compared to the vehicle group [5]: significant increase | GSH adduct formation (reactive intermediate) [6]: did form a GSH adduct | MIC [7]: 0.03 µg/mL (≈ 0.0263 µM) | fraction unbound ([8]; 1 μg/ml): 0.022 | fraction unbound ([8]; 5 μg/ml): 0.014 | % remaining in human plasma [9]: 7% | log reduction in CFU per gram relative to vehicle ([2]; 0.6 mg/kg single i.v. dose, 24, 48, 72 h): up to 2.7 log | antimicrobial effect (≥99%, 2-log reduction in CFU per gram) ([2]; anidulafungin 0.6 mg/kg i.v., at 24 and 48 h): significant

C[C@@H]1[C@H](O)[C@@H](C)/C=C/C=C/C=C/C=C/C=C/C=C/C=C/[C@H](O[C@@H]2O[C@H](C)[C@@H](O)[C@H](N)[C@@H]2O)C[C@@H]2O[C@](O)(C[C@@H](O)C[C@@H](O)[C@H](O)CC[C@@H](O)C[C@@H](O)CC(=O)O[C@H]1C)C[C@H](O)[C@H]2C(=O)O [amphotericin B, reference compound]
10-day survival rate compared to the vehicle group [5]: significant increase
